From patent publication US20220323583A1, “Pharmaceutical Formulations of Bi-Specific Diabodies and Use of the Same” (MacroGenics, Inc., priority 2019, published 2022)

Key:
[1] = RP-HPLC for BA and MP recovery (preservative concentration); assay type: physicochemical; conditions: for Tested Benzyl Alcohol Concentration: Study 2, diluted DART-A DP formulation in cassette 25° C., 100 rpm, 5000 ng/mL, expected 0.86%
Protocol: Preservative recovery was measured using Reverse Phase (RP) HPLC analysis. The RP-HPLC configuration included a photodiode array (PDA) detector (λBA=254 nm, λMP=340 nm), a mobile phase composition of 40% acetonitrile, 0.1% formic acid and a Zorbax® 5 μm Eclipse-XDB-C18 80 Å liquid chromatography column. Samples were diluted ten-fold. The column temperature was set to 40±5° C. 50 μL of solution was injected for each 10-minute run.

USP recommended microbes = test: Microbial challenge testing, statements on several microbes together; assay type: cell-based
Protocol: Microbial challenge testing was performed to evaluate the preservative effect of stabilizer solutions containing ≤0.17% BA and ≤0.1% MP. Microbial challenge testing was chosen as it more accurately represents the proposed dose preparation and dilution scheme where doses will be prepared aseptically and the number of microbes that may be introduced to the solution would be low. Microbial challenge testing was performed in two stages. The first stage determined the effective concentrations of BA and MP while the second stage tested the final formulation according to USP specifications. Each stage is described in detail below.
To confirm the anti-microbial properties of Stabilizer 2 once diluted in saline (i.e., in the dosing solution), microbial growth testing was performed by SGS Life Sciences. The USP recommended microbes required for testing are listed below in Table 26.
A high dosing solution (150 kg patient at 1,000 ng/kg cohort) was prepared to represent the maximum preservative dilution. […] Microbial growth studies were performed on all five USP recommended microbes with a target concentration between 10 and 100 CFU/mL. The microbial growth results are listed below in Table 27.
Microbial Challenge Testing was performed to evaluate the preservative effect of stabilizer solutions. In short, high concentration (1250 ng/mL) dosing solution was prepared according Table 36. USP<51> recommended microbes were introduced to the solution with a target concertation between 10 and 100 CFU/mL. Solutions were stored at the USP<51> recommended temperature for each microbe and at predetermined time points, samples were collected. Testing of samples was performed according to USP<1227>. The threshold for no microbial growth was established to be not greater than 0.5 log colony count compared to the initial concentration of microbe.

[2] = Stabilizer solution optimizing studies (turbidity, miscibility, pH, MP in solution); assay type: physicochemical
Protocol: Since the BA concentration in the stabilizer solution is limited due to patient safety concerns, to increase the preservative effectiveness duration, the MP concentration in the stabilizer solution could be increased to 0.1%. However, when the concentrated stabilizer solution is presented as a 20 mL additive volume, this level of MP leads to high solution pH (≥9.0), solution turbidity, and PS80 immiscibility. To address these issues, a series of stabilizer solution optimizing studies were performed to determine the final concentrated stabilizer solution.
The first study explored lower levels of PS80 in the concentrated stabilizer solution to determine if the turbidity and solution instability or immiscibility issues can be addressed. […] However, this concentration of PS80 remains turbid at room temperature. A subsequent study evaluating larger concentrated stabilizer solution additive volume presentations was performed to determine if lowering the levels of all excipients in the concentrated stabilizer solution helps address the high turbidity issue. […] To determine optimal concentrated stabilizer solution pH, studies varying the formulation buffer strength were performed. […] As a result, variable concentrations of MP were evaluated in a subsequent study. […] Based on the results of the previous PS80 and MP studies, a final study was performed evaluating variable concentrations of MP and PS80 to determine the optimal combination that addresses solution turbidity at an acceptable pH. […] When 40 mL of this stabilizer solution is diluted in a 250 mL saline bag, the resulting dosing solution will contain 0.17% BA and 0.055% MP. […] As a result, the preservative effectiveness of the re-formulated Stabilizer 2 solution having final preservative levels of 0.17% BA and 0.05% MP in the dosing solution, was examined through microbial challenge testing of USP recommended microbes.
However, BA levels above 15.5 mg/mL result in solution instability or immiscibility and MP levels above 5.3 mg/mL produce a final solution above pH 8.4. […]

[3] = target: T1, soluble recombinant human IL-3 receptor alpha (rhIL3Rα) (Homo sapiens, UniProt P26951); test: ELISA (rhIL3Rα) DART-A quantitation assay (concentration, protein recovery); conditions: 0.05 mg/mL PS80 or 0.1 mg/mL PS80
T1 construct: soluble recombinant human IL-3 receptor alpha (rhIL3Rα)
T1 sequence (P26951 19-305 limits assumed): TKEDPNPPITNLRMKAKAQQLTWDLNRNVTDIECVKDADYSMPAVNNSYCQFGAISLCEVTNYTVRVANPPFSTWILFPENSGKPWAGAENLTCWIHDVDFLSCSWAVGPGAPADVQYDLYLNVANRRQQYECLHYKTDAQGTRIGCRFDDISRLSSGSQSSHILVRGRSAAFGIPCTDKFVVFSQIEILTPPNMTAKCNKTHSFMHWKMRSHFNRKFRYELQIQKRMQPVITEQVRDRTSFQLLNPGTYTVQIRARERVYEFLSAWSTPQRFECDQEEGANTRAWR
Protocol: In brief, the assay plate was coated with soluble recombinant human IL-3 receptor alpha (rhIL3Rα) overnight. […] After addition of MSD Read Buffer, the plate was inserted into the Sector Imager 2400 Plate Reader. When a voltage was applied to the plate electrodes, the bound Sulfo-TAG label produces an ECL signal, which was captured by the plate reader. A quantitative measure of the ECL signal emitted by each well was recorded, and the ECL counts emitted by the standard calibrators were used to generate a standard curve using a 4-parameter logistic (4PL) fit.

## OCc1ccccc1 [Benzyl Alcohol, benzyl alcohol]
[1]; Study 2, 25° C., 100 rpm shaking for up to 72 hours
  BA content: at least 0.75%
[1]; T = 0
  Tested Benzyl Alcohol Concentration: 0.91%
[1]; T = 24 hours
  Tested Benzyl Alcohol Concentration: 0.78%
[1]; T = 48 hours
  Tested Benzyl Alcohol Concentration: 0.76%
[1]; T = 72 hours
  Tested Benzyl Alcohol Concentration: 0.78%
USP recommended microbes; BA 0.17% alone (single pump target concentration)
  antimicrobial property: does not inhibit growth
USP recommended microbes; BA 0.9% (concentration in Stabilizer 1), P. aeruginosa and C. albicans
  antimicrobial property: both bactericidal and fungicidal
USP recommended microbes; previous study
  BA concentration that provided sufficient anti-microbial activity: 0.61%
[2]; stabilizer solution
  BA level that results in solution instability or immiscibility: above 15.5 mg/mL

## COC(=O)c1ccc(O)cc1 [MP, methylparaben]
[2]; concentrated stabilizer solution, pH≤8.0
  share of the target MP concentration that stays in solution: 30-50%
[2]; stabilizer solution
  MP level that produces a final solution above pH 8.4: above 5.3 mg/mL

## polysorbate 80 [PS80]
[3]
  blocking activity (inhibition of DART-A adsorption): sufficient blocking activity
